{
  "source": "patent US20220275329A1",
  "about": "“COMPOSITIONS AND METHODS FOR MATURING STEM CELL-DERIVED BETA CELLS” (President and Fellows of Harvard College, priority 2019, published 2022)",
  "key": {"[1]": {"system": "mTORC1", "assay": "p-S6 staining of SC-beta cells (mTORC1 activity)", "format": "cell-based, human", "protocol": "(§1) The hPSC line HUES8 (NIH human embryonic stem cell registry #0021) was used for all experiments. Undifferentiated HUES8 cells were maintained in supplemented mTeSR1 medium (StemCell Technologies) in 500 ml spinner flasks (Coming) set at a 70 rpm rotation rate in a 37° C. 5% CO2 incubator. Directed differentiation into SC-β cells was conducted as described previously with minor modifications. Briefly, 150 million cells were seeded in 300 ml mTeSR1 +10 μM ROCK Inhibitor Y27632, fed with mTeSR1 48 h later, and 72 h later stepwise differentiation stages were induced by the following treatments: DE stage: 24 h in S1 medium +100 ng/ml ActivinA +[…] CHIR99021, followed by 48 h in the same medium without CHIR99021. PGT stage: 72 h in S2 medium +50 ng/ml KGF. PP1 stage: 24 h in S3 medium +50 ng/ml KGF +0.25 μM Sant1 +2 μM Retinoic acid (RA) +500 nM PDBU +10 μM Y27632 +200 nM LDN193189, followed by 24 h in the same medium without LDN193189. […]\n(§2) Cells were then resuspended in perm/wash with primary antibodies and incubated at 4° C. overnight. […] Cells were then washed 3 times in perm/wash solution and finally resuspended in 500-700 μl, filtered through a 40 μm nylon mash into flow cytometry tubes (BD Falcon; 352235), and analyzed using the LSR-II flow cytometer (BD Biosciences) with at least 30,000 events recorded. […]"}, "[2]": {"system": "mTORC1", "assay": "p-S6 FACS staining of beta cells in isolated human islets (mTORC1 activation)", "format": "cell-based", "conditions": "for effect on mTORC1 activity (p-S6) in mature beta cells: human islets, 30 minute incubation in RPMI", "description": "Insulin-expressing beta cells appear around embryonic day 13.5 (E13.5) in mice and week 8 and 9 post-conception in humans (Pan and Wright, 2011; Slack, 1995), but glucose-stimulated insulin secretion (GSIS) has been observed only days after birth (Blum et al., 2012). Since a major change from embryonic to postnatal physiology is nutrient consumption, it was predicted that nutrients and nutrient sensing by mTORC1 could have a role in the transition from immature to mature insulin secretion by beta cells. To explore that, the nutrient sensitivity and dynamics of mTORC1 in isolated mature human and mouse islets was first examined.\n(§3) Differentiated cell clusters or islets were dispersed into single-cell suspension by incubation in TrypLE Express (Invitrogen) at 37° C. until clusters dissociated to single cells upon mixing by pipetting gently up and down (typically 10-15 min). Cells were spun down for 3 min at 1000 rpm, washed once in PBS (1 mL) and transferred to a 1.7 ml microcentrifuge tube (Bioscience; 11510). Cells were resuspended in perm/fix solution and incubated for 10 min (BD 554714). Cells were then washed once in perm/wash for 15 min (BD 554714).\nCells were then resuspended in perm/wash with primary antibodies and incubated at 4° C. overnight. Primary antibodies, diluted 1:300 unless otherwise noted: Mouse anti-Nkx6.1, rat anti-insulin (pro-)IC-peptide, mouse anti-glucagon, rabbit anti-phospho-S6 Ribosomal Protein (Ser240/244). Cells were washed twice in blocking buffer and then incubated in perm/wash buffer with secondary antibodies for 2 hr (protected from light). Secondary antibodies conjugated to Alexa Fluor 405, 488 or 647 (Life Technologies) were used to visualize primary antibodies. Cells were then washed 3 times in perm/wash solution and finally resuspended in 500-700 μl, filtered through a 40 μm nylon mash into flow cytometry tubes (BD Falcon; 352235), and analyzed using the LSR-II flow cytometer (BD Biosciences) with at least 30,000 events recorded. Analysis of the results was performed using FlowJo software. […]"}, "[3]": {"system": "SC-beta cells", "assay": "Glucose stimulated insulin secretion (GSIS) assay of SC-beta cells", "format": "cell-based, human", "protocol": "as §1, with “LDN193189. PP2 stage: 6 days in S3 medium +50 ng/ml KGF +0.25 uM Sant1 +0.1 μM Retinoic acid (RA) +10 μM Y27632 +5 ng/ml ActivinA.” for “LDN193189.”\nIslets were isolated from whole pancreata using Collagenase P (Roche) injected to the pancreatic duct followed by Histopaque gradient (Sigma). […] Insulin levels were measured by ELISA (Alpco). […] Normalization was done to β-cell number in each sample (pooled from 4 or more mice) scored by FACS following staining for insulin."}, "[4]": {"system": "mTORC1", "assay": "p-S6 FACS staining of beta cells in isolated mouse islets (mTORC1 activation)", "format": "cell-based", "protocol": "as §3\nas §2, with “overnight. Primary antibodies, diluted 1:300 unless otherwise noted: Mouse anti-Nkx6.1, rat anti-insulin (pro-)IC-peptide, mouse anti-glucagon, rabbit anti-phospho-S6 Ribosomal Protein (Ser240/244).” for “overnight.”\nFor flow cytometry, mouse islets were dissociated into a single-cell suspension with trypsin/EDTA treatment for 5 minutes at 37° C., followed by treatment with a cell fixation and permeabilization solution (BD Pharmingen). Stained cells were analyzed on a MACSQuant Analyzer (DAKO). […]"}, "[5]": {"system": "mTORC1", "assay": "p-S6 immunostaining of pancreatic islets of fasted mice injected with nutrients", "format": "in vivo, mouse", "conditions": "overnight fasted mice, injection", "protocol": "To assess this, mTORC1 activation was analyzed in the islets of fasted mice upon injection with glucose and/or leucine. […] Alpha cells activate the pathway in the presence of amino acids (likely supplied from autophagy) and the absence of glucose (e.g., during fasting), whereas beta cells activate mTORC1 merely following glucose consumption and insulin secretion during feeding (FIG. 1H).\nTo test the nutrient sensitivity of mTORC1 in beta cells in vivo, glucose was injected into neonates and their pancreata was dissected.\nTissue processing for tissue section staining was performed as previously described {Nir, 2007 #3232}, using the following antibodies: insulin (DakoCytomation), Ki67 (NeoMarkers RM9106S0), Pdx1 (gift from Christopher Wright, Vanderbilt University), Nkx6.1 (β-cell Biology Consortium), Chga (Novus NB120-15160) human p16 (Abcam ab108349 and BD Pharmingen 551153), p21 (Santa Cruz Biotechnology sc-397), Lamp2a (Abcam ab18528), pS6 (Cell Signaling 5364), E-cadherin (BD Pharmingen 610182), Atp5a (Abcam ab14748), Cox17 (Novus NBP1-19696) and Ndufb (Sigma-Aldrich HPA005640). Secondary antibodies were from Jackson ImmunoResearch Laboratories. […] To calculate cell size on tissue sections, the circumference of E-Cadherin-stained cells was determined using Image J Software. >100 cells from 6 mice were scored for each group. […]"}, "[6]": {"system": "mTORC1", "assay": "p-S6 immunostaining of kidney capsule transplants of SC-beta cells in mice injected with nutrients", "format": "in vivo", "conditions": "two months after transplantation, fasted recipient mouse, injection", "protocol": "Having insight into the nutrient sensitivity of mTORC1 in immature and mature beta cells, the next question was whether changing the environment of the SC-beta cells would change mTORC1 sensitivity to nutrients and its dynamics (FIG. 3A). SC-beta cells were collected from the final stage of the differentiation protocol and transplanted into mice for a period of two months, until reaching a stable functional state. […] All animal experiments were performed in accordance with Harvard University […] Animal Care and Use Committee regulations. Cell transplantations into immunodeficient SCID-Beige mice (Jackson Laboratory) were conducted as described previously with minor modifications. SC-beta cell clusters were resuspended in RPMI-1640 medium (Life Technologies; 11875-093), aliquoted into PCR tubes and kept on ice until loading into a catheter for cell delivery under the mouse kidney capsule. Mice were anesthetized with 0.5 ml/25 g 1.25% Avertin/body weight, and the left […] kidney site was shaved and disinfected with betadine and alcohol. A 1 cm incision was made to expose the kidney, followed by insertion of the catheter needle and injection of the cell clusters. […] Wound clips were removed 14 days post-surgery and mice were monitored twice a week. […]"}},
  "note": "“Also recorded” adds a separate entry of the source.",
  "data": [
    {"compound": "CCC(=O)N1CCN(c2ccc(-n3c(=O)ccc4cnc5ccc(-c6cnc7ccccc7c6)cc5c43)cc2C(F)(F)F)CC1", "note": "[Torin1]", "values": [
      {"measurement": "effect on enhanced mTORC1 signaling (phosphorylation of p-S6) in nonresponsive SC-beta cells", "setting": "[1]; glucose-nonresponsive SC-beta cells", "result": "repressed"},
      {"measurement": "effect on mTORC1 activity (p-S6) of SC-beta cells cultured in a high nutrient environment", "setting": "[1]; rich RPMI media", "result": "repressed"},
      {"measurement": "effect on mTORC1 activity (p-S6) in mature beta cells", "setting": "[2]", "result": "inhibited"},
      {"measurement": "GSIS of SC-beta cells grown in indicated conditions", "setting": "[3]; low (2.8 mM) and high (16.7 mM) glucose for 1 h", "result": "increases their GSIS"},
      {"measurement": "insulin secretion in dynamic GSIS assay", "setting": "[3]; nonresponsive SC-beta cells treated for 48 hours, low 2.8 mM, high 16.7 mM glucose", "result": "induced insulin secretion in response to glucose"}
    ]},
    {"compound": "CC1=NS(=O)(=O)c2cc(Cl)ccc2N1", "note": "[diazoxide]", "values": [
      {"measurement": "effect on mTORC1 activation (p-S6) in immature beta cells from mice of indicated age", "setting": "[4]; RPMI with glucose and amino acids, 30 minute incubation", "result": "inhibits mTORC1 activation only at P5; also recorded: does not affect mTORC1 activation"},
      {"measurement": "effect on mTORC1 activity (p-S6) in mature beta cells", "setting": "[2]", "result": "inhibits mTORC1 activation; also recorded: dramatically reduces mTORC1 activity in beta cells"}
    ]},
    {"compound": "CC(C)C[C@H](N)C(=O)O", "note": "[leucine]", "values": [
      {"measurement": "effect on mTORC1 activity (p-S6) in mature beta cells", "setting": "[2]", "result": "amplifies the response to glucose in beta cells; also recorded: sufficient to fully activate the beta cell mTORC1 pathway in the presence of glucose"},
      {"measurement": "mTORC1 activation (p-S6) in beta cells of adult mice", "setting": "[5]", "result": "not sufficient to activate the pathway"},
      {"measurement": "mTORC1 pathway activation (p-S6) in transplanted SC-beta cells", "setting": "[6]", "result": "remains inactive"}
    ]},
    {"compound": "Exendin-4", "values": [
      {"measurement": "effect on mTORC1 activity (p-S6) in mature beta cells", "setting": "[2]", "result": "increased"},
      {"measurement": "effect on mTORC1 activity (p-S6) in mature beta cells", "setting": "[2]; listed as exendin4", "result": "strongly activate mTORC1 in beta cells"},
      {"measurement": "effect on mTORC1 activity suppressed by diazoxide in beta cells", "setting": "[2]; in the presence of diazoxide, glucose and amino acids", "result": "rescued"}
    ]},
    {"compound": "insulin", "values": [
      {"measurement": "effect on mTORC1 activation (p-S6) in mouse beta cells", "setting": "[4]; mouse islets, 30 minutes incubation in RPMI with indicated nutrients", "result": "do not affect mTORC1 activation in beta cells"},
      {"measurement": "effect on mTORC1 activity (p-S6) in mature beta cells", "setting": "[2]", "result": "not mimicked; also recorded: neither stimulation with insulin nor stimulation with insulin and amino acids was able to activate mTORC1 in beta cells"}
    ]}
  ]
}
